Assay results reported in patent US9108944B2, “Androgen receptor modulators and uses thereof” (ARAGON PHARMACEUTICALS, INC., priority 2010, dated 2015).

Molecular target: T1, AR-VP16 (Homo sapiens, UniProt P10275)
T1 sequence (P10275 560-920 limits assumed): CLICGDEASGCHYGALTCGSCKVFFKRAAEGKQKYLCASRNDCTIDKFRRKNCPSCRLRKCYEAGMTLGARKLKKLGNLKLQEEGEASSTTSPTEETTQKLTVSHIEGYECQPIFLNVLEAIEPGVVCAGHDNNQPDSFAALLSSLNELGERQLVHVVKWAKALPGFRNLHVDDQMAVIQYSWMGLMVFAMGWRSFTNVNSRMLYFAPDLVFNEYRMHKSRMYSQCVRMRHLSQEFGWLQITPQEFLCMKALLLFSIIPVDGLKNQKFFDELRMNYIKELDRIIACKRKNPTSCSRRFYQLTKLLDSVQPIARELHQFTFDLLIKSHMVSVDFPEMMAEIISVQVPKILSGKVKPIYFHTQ
Test: AR-VP16 DNA Binding Assay, agonist mode (HepG2 cells)
Format: cell-based
Settings: Emax >20x DMSO control = agonist

Compound | ARVP16 DNA Binding Assay (Agonist mode): Agonist?
Cc1cc(N2C(=O)C3(CCC3)N(c3ccc(C(=O)Nc4ccn(C)n4)c(F)c3)C2=S)cnc1C#N [Compound 303, 4-(7-(6-Cyano-5-methylpyridin-3-yl)-8-oxo-6-thioxo-5,7-diazaspiro[3.4]octan-5-yl)-2-fluoro-N-(1-methyl-1H-pyrazol-3-yl)benzamide] | No (Agonist defined as a compound whose Emax in the ARVP16 DNA Binding Assay (Agonist mode) is >20x DMSO control)
Cc1cc(N2C(=O)C3(CCC3)N(c3ccc(OCCN4CCN(C)CC4)c(F)c3)C2=S)cnc1C#N [Compound 170, 5-(5-(3-Fluoro-4-(2-(4-methylpiperazin-1-yl)ethoxy)phenyl)-8-oxo-6-thioxo-5,7-diazaspiro[3.4]octan-7-yl)-3-methylpicolinonitrile] | Yes (Agonist defined as a compound whose Emax in the ARVP16 DNA Binding Assay (Agonist mode) is >20x DMSO control)
CC(C)CNC(=O)c1ccc(N2C(=S)N(c3cnc(C#N)c(C(F)(F)F)c3)C(=O)C23CCC3)cc1F [Compound 280, 4-(7-(6-Cyano-5-(trifluoromethyl)pyridin-3-yl)-8-oxo-6-thioxo-5,7-diazaspiro[3.4]octan-5-yl)-2-fluoro-N-isobutylbenzamide] | No (Agonist defined as a compound whose Emax in the ARVP16 DNA Binding Assay (Agonist mode) is >20x DMSO control)
Cc1cc(N2C(=O)C3(CCC3)N(c3ccc(C(=O)NCc4ccc(F)cc4)c(F)c3)C2=S)cnc1C#N [Compound 293, 4-(7-(6-Cyano-5-methylpyridin-3-yl)-8-oxo-6-thioxo-5,7-diazaspiro[3.4]octan-5-yl)-2-fluoro-N-(4-fluorobenzyl)benzamide] | No (Agonist defined as a compound whose Emax in the ARVP16 DNA Binding Assay (Agonist mode) is >20x DMSO control)
N#Cc1ncc(N2C(=O)C3(CCC3)N(c3ccc(Oc4ccccc4)cc3)C2=S)cc1C(F)(F)F [Compound 25, 5-(8-Oxo-5-(4-phenoxyphenyl)-6-thioxo-5,7-diazaspiro[3.4]octan-7-yl)-3-(trifluoromethyl)picolinonitrile] | No (Agonist defined as a compound whose Emax in the ARVP16 DNA Binding Assay (Agonist mode) is >20x DMSO control)
CN1CCC(Oc2ccc(N3C(=S)N(c4cnc(C#N)c(C(F)(F)F)c4)C(=O)C34CCC4)cc2)CC1 [Compound 129, 5-(5-(4-((1-Methylpiperidin-4-yl)oxy)phenyl)-8-oxo-6-thioxo-5,7-diazaspiro[3.4]octan-7-yl)-3-(trifluoromethyl)picolinonitrile] | No (Agonist defined as a compound whose Emax in the ARVP16 DNA Binding Assay (Agonist mode) is >20x DMSO control)

Molecular target: T1, AR-VP16
Test: AR-VP16 DNA Binding Assay, antagonist mode (HepG2 cells, 0.1 nM R1881)
Format: cell-based
Settings: not given
Procedure, shortened: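 HepG2 cells transiently transfected with AR-VP16 (Lipofectin), incubated overnight, then treated with compound in RPMI with charcoal-stripped serum. Antagonist mode adds R1881 at 0.1 nM final. Cells lysed after 48 h incubation for read-out.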

Compound | IC50
Cc1cc(N2C(=O)C3(CCC3)N(c3ccc(C(=O)Nc4ccn(C)n4)c(F)c3)C2=S)cnc1C#N [Compound 303, 4-(7-(6-Cyano-5-methylpyridin-3-yl)-8-oxo-6-thioxo-5,7-diazaspiro[3.4]octan-5-yl)-2-fluoro-N-(1-methyl-1H-pyrazol-3-yl)benzamide] | > 1 µM
Cc1cc(N2C(=O)C3(CCC3)N(c3ccc(OCCN4CCN(C)CC4)c(F)c3)C2=S)cnc1C#N [Compound 170, 5-(5-(3-Fluoro-4-(2-(4-methylpiperazin-1-yl)ethoxy)phenyl)-8-oxo-6-thioxo-5,7-diazaspiro[3.4]octan-7-yl)-3-methylpicolinonitrile] | < 1 µM
CC(C)CNC(=O)c1ccc(N2C(=S)N(c3cnc(C#N)c(C(F)(F)F)c3)C(=O)C23CCC3)cc1F [Compound 280, 4-(7-(6-Cyano-5-(trifluoromethyl)pyridin-3-yl)-8-oxo-6-thioxo-5,7-diazaspiro[3.4]octan-5-yl)-2-fluoro-N-isobutylbenzamide] | < 1 µM
Cc1cc(N2C(=O)C3(CCC3)N(c3ccc(C(=O)NCc4ccc(F)cc4)c(F)c3)C2=S)cnc1C#N [Compound 293, 4-(7-(6-Cyano-5-methylpyridin-3-yl)-8-oxo-6-thioxo-5,7-diazaspiro[3.4]octan-5-yl)-2-fluoro-N-(4-fluorobenzyl)benzamide] | < 1 µM
N#Cc1ncc(N2C(=O)C3(CCC3)N(c3ccc(Oc4ccccc4)cc3)C2=S)cc1C(F)(F)F [Compound 25, 5-(8-Oxo-5-(4-phenoxyphenyl)-6-thioxo-5,7-diazaspiro[3.4]octan-7-yl)-3-(trifluoromethyl)picolinonitrile] | < 1 µM
Cc1cc(N2C(=O)C3(CCC3)N(c3ccc(OC4CCOCC4)cc3)C2=S)cnc1C#N [Compound 194, 3-Methyl-5-(8-oxo-5-(4-((tetrahydro-2H-pyran-4-yl)oxy)phenyl)-6-thioxo-5,7-diazaspiro[3.4]octan-7-yl)picolinonitrile] | < 1 µM
CNS(=O)(=O)c1ccc(N2C(=S)N(c3cnc(C#N)c(C(F)(F)F)c3)C(=O)C23CCC3)cc1 [Compound 120, 4-(7-(6-Cyano-5-(trifluoromethyl)pyridin-3-yl)-8-oxo-6-thioxo-5,7-diazaspiro[3.4]octan-5-yl)-N-methylbenzenesulfonamide] | > 1 µM
Cc1ccc(N2C(=S)N(c3ccc(C#N)c4ncccc34)C(=O)C23CCC3)cc1 [Compound 36, 5-(8-Oxo-6-thioxo-5-(p-tolyl)-5,7-diazaspiro[3.4]octan-7-yl)quinoline-8-carbonitrile] | < 1 µM
N#Cc1ncc(N2C(=O)C3(CCC3)N(C3CCCCC3)C2=S)cc1C(F)(F)F [Compound 53, 5-(5-Cyclohexyl-8-oxo-6-thioxo-5,7-diazaspiro[3.4]octan-7-yl)-3-(trifluoromethyl)picolinonitrile] | < 1 µM
CNC(=O)c1ccc(N2C(=S)N(c3cnc(C#N)c(C(F)(F)F)c3)C(=O)C23CCC3)cc1 [Compound 79, 4-(7-(6-Cyano-5-(trifluoromethyl)pyridin-3-yl)-8-oxo-6-thioxo-5,7-diazaspiro[3.4]octan-5-yl)-N-methylbenzamide] | < 1 µM
N#Cc1ncc(N2C(=O)C3(CCC3)N(c3ccc(OCCCOCc4ccccc4)c(F)c3)C2=S)cc1C(F)(F)F [Compound 135, 5-(5-(4-(3-(Benzyloxy)propoxy)-3-fluorophenyl)-8-oxo-6-thioxo-5,7-diazaspiro[3.4]octan-7-yl)-3-(trifluoromethyl)picolinonitrile] | < 1 µM
N#Cc1ncc(N2C(=O)C3(CCC3)N(c3ccc(C(=O)NCc4cccnc4)c(F)c3)C2=S)cc1C(F)(F)F [Compound 265, 4-(7-(6-Cyano-5-(trifluoromethyl)pyridin-3-yl)-8-oxo-6-thioxo-5,7-diazaspiro[3.4]octan-5-yl)-2-fluoro-N-(pyridin-3-ylmethyl)benzamide] | < 1 µM
Cc1cc(N2C(=O)C3(CCC3)N(c3ccc(C(=O)NC4CCOCC4)c(F)c3)C2=S)cnc1C#N [Compound 310, 4-(7-(6-Cyano-5-methylpyridin-3-yl)-8-oxo-6-thioxo-5,7-diazaspiro[3.4]octan-5-yl)-2-fluoro-N-(tetrahydro-2H-pyran-4-yl)benzamide] | > 1 µM
CC1(C)C(=O)N(c2cnc(C#N)c(C(F)(F)F)c2)C(=S)N1c1ccc(O)cc1 [Compound 100, 5-(3-(4-Hydroxyphenyl)-4,4-dimethyl-5-oxo-2-thioxoimidazolidin-1-yl)-3-(trifluoromethyl)picolinonitrile] | < 1 µM
Cc1cc(N2C(=O)C3(CCC3)N(c3ccc(C(=O)Nc4ccc(F)cc4)c(F)c3)C2=S)cnc1C#N [Compound 299, 4-(7-(6-Cyano-5-methylpyridin-3-yl)-8-oxo-6-thioxo-5,7-diazaspiro[3.4]octan-5-yl)-2-fluoro-N-(4-fluorophenyl)benzamide] | < 1 µM
CNC(=O)c1ccc(N2C(=S)N(c3cnc(C#N)c(C)c3)C(=O)C23CCC3)cc1Cl [Compound 108, 2-Chloro-4-(7-(6-cyano-5-methylpyridin-3-yl)-8-oxo-6-thioxo-5,7-diazaspiro[3.4]octan-5-yl)-N-methylbenzamide] | < 1 µM
CC(C)CCNC(=O)c1ccc(N2C(=S)N(c3cnc(C#N)c(C(F)(F)F)c3)C(=O)C23CCC3)cc1F [Compound 282, 4-(7-(6-Cyano-5-(trifluoromethyl)pyridin-3-yl)-8-oxo-6-thioxo-5,7-diazaspiro[3.4]octan-5-yl)-2-fluoro-N-isopentylbenzamide] | < 1 µM
N#Cc1ncc(N2C(=O)C3(CCC3)N(c3ccc(C(=O)NCc4ccccn4)c(F)c3)C2=S)cc1C(F)(F)F [Compound 264, 4-(7-(6-Cyano-5-(trifluoromethyl)pyridin-3-yl)-8-oxo-6-thioxo-5,7-diazaspiro[3.4]octan-5-yl)-2-fluoro-N-(pyridin-2-ylmethyl)benzamide] | < 1 µM
N#Cc1ncc(N2C(=O)C3(CCC3)N(c3cccnc3)C2=S)cc1C(F)(F)F [Compound 19, 5-(8-Oxo-5-(pyridin-3-yl)-6-thioxo-5,7-diazaspiro[3.4]octan-7-yl)-3-(trifluoromethyl)picolinonitrile] | > 1 µM
N#Cc1ncc(N2C(=O)C3(CCC3)N(c3ccc(OCCCC(F)(F)C(F)(F)F)c(F)c3)C2=S)cc1C(F)(F)F [Compound 134, 5-(5-(3-Fluoro-4-((4,4,5,5,5-pentafluoropentyl)oxy)phenyl)-8-oxo-6-thioxo-5,7-diazaspiro[3.4]octan-7-yl)-3-(trifluoromethyl)picolinonitrile] | < 1 µM
COc1ccc(N2C(=S)N(c3cnc(C#N)c(C(F)(F)F)c3)C(=O)C23CCC3)cc1 [Compound 204, 5-(5-(4-Methoxyphenyl)-8-oxo-6-thioxo-5,7-diazaspiro[3.4]octan-7-yl)-3-(trifluoromethyl)picolinonitrile] | < 1 µM
CNC(=O)c1ccc(N2C(=S)N(c3cnc(C#N)c(C)c3)C(=O)C2(C)C)cc1F [Compound 47, 4-(3-(6-Cyano-5-methylpyridin-3-yl)-5,5-dimethyl-4-oxo-2-thioxoimidazolidin-1-yl)-2-fluoro-N-methylbenzamide] | < 1 µM
COCCOc1ccc(N2C(=S)N(c3cnc(C#N)c(C(F)(F)F)c3)C(=O)C23CCC3)c(F)c1 [Compound 181, 5-(5-(2-Fluoro-4-(2-methoxyethoxy)phenyl)-8-oxo-6-thioxo-5,7-diazaspiro[3.4]octan-7-yl)-3-(trifluoromethyl)picolinonitrile] | < 1 µM
N#Cc1ncc(N2C(=O)C3(CCC3)N(c3ccc(Oc4cncnc4)cc3)C2=S)cc1C(F)(F)F [Compound 42, 5-(8-Oxo-5-(4-(pyrimidin-5-yloxy)phenyl)-6-thioxo-5,7-diazaspiro[3.4]octan-7-yl)-3-(trifluoromethyl)picolinonitrile] | < 1 µM
Cc1cc(N2C(=O)C3(CCC3)N(c3ccc(N(C)C4CCN(C)CC4)cc3)C2=S)cnc1C#N [Compound 102, 3-Methyl-5-(5-(4-(methyl(1-methylpiperidin-4-yl)amino)phenyl)-8-oxo-6-thioxo-5,7-diazaspiro[3.4]octan-7-yl)picolinonitrile] | > 1 µM
N#Cc1ncc(N2C(=O)C3(CCC3)N(c3ccc(OCCc4ccncc4)c(F)c3)C2=S)cc1C(F)(F)F [Compound 142, 5-(5-(3-Fluoro-4-(2-(pyridin-4-yl)ethoxy)phenyl)-8-oxo-6-thioxo-5,7-diazaspiro[3.4]octan-7-yl)-3-(trifluoromethyl)picolinonitrile] | < 1 µM
